One sequence from patent US5885789A, “Solution-based assay for peroxidatively-active substances in bodily fluids” (STC Technologies Incorporated, priority 1997, dated 1999) can be followed below.

A short description of this assay: Calibration of the Working Reagent at 660 nm (aqueous hemoglobin solutions). The format is biochemical. Particulars: 2 minutes, 37° C. On the procedure: To prepare the solution-based assay composition, 14 mL of stock reagent B was poured into 1 mL of stock reagent A and mixed gently for 1-2 minutes by stirring. The combined A/B reagent was poured into 1 L of stock reagent C and mixed gently by stirring for approximately 30 minutes and allowed to stand at room temperature overnight prior to use. This prepared a working solution-based assay composition to be used as a working reagent.
A solution-based assay composition prepared according to Example 1 was used to calibrate its detectable color change having an absorbance at about 660 nm. Aqueous solutions of hemoglobin were prepared in the concentrations of 0.055, 0.060, 0.065, 0.068, 0.070, and 0.075 mg/dL. Twenty-one replicates of each hemoglobin solution were run using the following procedure.
The solution-based assay composition (or working reagent) and the hemoglobin solutions were equilibrated at room temperature before use. A 15 microliter sample of a hemoglobin solution and 250 microliters of the working reagent were transferred to the sample wheel of a Cobas-Bio autoanalyzer which was equilibrated at 37° C. The sample and the working reagent were mixed by rotation of the sample wheel. After the sample and working reagent were allowed to react for 2 minutes, the absorbance of the resulting solution was measured at 660 nm. The calibration curve shown in FIG. 1 was generated by plotting absorbance versus concentration data shown in Table 1 below and using standard regression analysis. This calibration curve can then be used to quantitatively assay the amount of hemoglobin in a bodily fluid.

On to HEMOGLOBIN, for which the “ABSORBANCE, 660 nm” value by setting is: (hemoglobin 0.055 mg/dL, 15 microliter sample + 250 microliters working reagent) 0.1139; (hemoglobin 0.06 mg/dL) 0.1319; (hemoglobin 0.065 mg/dL) 0.1474; (hemoglobin 0.0675 mg/dL) 0.1557; (hemoglobin 0.070 mg/dL) 0.1719; (hemoglobin 0.075 mg/dL) 0.1877.
